# From patent US11896593B2, “Sulfamate derivative compounds for use in treating or alleviating a psychiatric disorder” (Bio-Pharm Solutions Co., Ltd., priority 2020, dated 2024)
# Test system: ICR male mice
# Assay: Forced swim test (mouse, mFST)
# Format: in vivo
# Conditions: po; mouse forced swim test, 30 mg/kg, 1 hr; read-out: mFST protection % at administration dose
# Protocol: In order to determine the anti-depressant effect in rodents, the forced swim test was performed with rats and mice. The forced swim test causes an immobile state by forcing an animal to swim in a confined space. It reflects a state of despair giving up evading such a circumstance. ICR male mice (25 g to 30 g) and Wistar male rats (240 g to 260 g) were purchased from Samtako Bio Korea Co. (Korea) and allowed to acclimatize for 1 week before being tested in a controlled animal facility (temperature 22±2° C., humidity 55±5%). The test compound was dissolved in 20% Tween80 and administered orally 60 minutes before testing. The control group was provided with a corresponding vehicle. […] 15 minutes of forced swimming was performed a day before the experiment. On the day of the experiment, the animal was placed in the cylinder 60 minutes after the administration of the compound and was videotaped for 6 minutes. In the recorded videos, time during which the animal placed its head on the water and remained still without movement was measured based on the remaining 4 minutes excluding the first 2 minutes. It was evaluated that the lower the value of the immobile posture time, the greater the anti-depressant action (Reference; Porsolt R D, Le Pichon M. Jalfre M. 1997. Depression: a new animal model sensitive to antidepressant treatments. Nature. April 21; 266(5604):730-2.).
# The result was shown as the standard error of measurement (SEM) of mean value t mean value. Behavioral data were analyzed by one-way ANOVA. For statistical significance, a value of <0.05 was taken (***p<0.001, **p=0.001˜0.01, *p=0.01˜0.05). Data management and statistics were performed using the Prism software of Windows version 4 (GraphPad Softward Co., San Diego, CA, USA).
# Based on the results of Table 7, the ED50 value of the compound of Example 2 was calculated and shown in Table 7, and after 30 mg/kg and 60 mg/kg of the compounds of the other remaining examples were administered based on TD50 values to perform the forced swim tests, respectively, the administration doses with protected efficacy and protection % at the corresponding administration doses were shown in Table 7.
row,Structure (SMILES),inhibition in vivo at 30 mg/kg
1,"CC1(C)O[C@@H](COS(N)(=O)=O)[C@H](c2ccc(Cl)cc2Cl)O1 [Example 40, ((4S,5S)-5-(2,4-dichlorophenyl)-2,2-dimethyl-1,3-dioxolan-4-yl)methyl sulfamate]",64.2%
2,"NS(=O)(=O)OC[C@H]1OC2(CCCC2)O[C@@H]1c1c(Cl)cccc1Cl [Example 57, ((2R,3R)-3-(2,6-dichlorophenyl)-1,4-dioxaspiro[4,4]nonan-2-yl)methyl sulfamate]",61.6%
3,"Cc1ccccc1[C@@H]1OC(C)(C)O[C@H]1COS(N)(=O)=O [Example 92, ((4S,5S)-5-(2-methylphenyl)-2,2-dimethyl-1,3-dioxolan-4-yl)methyl sulfamate]",47%
4,"CC1(C)O[C@@H](COS(N)(=O)=O)[C@H](Cc2ccccc2)O1 [Example 122, ((4S,5S)-5-benzyl-2,2-dimethyl-1,3-dioxolan-4-yl)methyl sulfamate]",46.9%
5,"CC1(C)O[C@@H](CCOS(N)(=O)=O)[C@H](c2ccccc2)O1 [Example 130, 2-((4S,5S)-5-phenyl-2,2-dimethyl-1,3-dioxolan-4-yl)ethyl sulfamate]",57.5%
6,"NS(=O)(=O)OCC[C@@H]1OC2(CCCC2)O[C@H]1c1ccccc1 [Example 134, 2-((2S,3S)-3-phenyl-1,4-dioxaspiro[4,4]nonan-2-yl)ethyl sulfamate]",63%
7,"NS(=O)(=O)OCC[C@@H]1OC2(CCCC2)O[C@H]1c1ccccc1Cl [Example 158, 2-((2S,3S)-3-(2-chlorophenyl)-1,4-dioxaspiro[4,4]nonan-2-yl)ethyl sulfamate]",51.6%

# Same assay, conditions: po; mouse forced swim test, 60 mg/kg, 1 hr; read-out: mFST protection % at administration dose
row,Structure (SMILES),inhibition in vivo at 60 mg/kg
1,"NS(=O)(=O)OC[C@@H]1OC2(CCCC2)O[C@H]1c1ccccc1Cl [Example 10, ((2S,3S)-3-(2-chlorophenyl)-1,4-dioxaspiro[4,4]nonan-2-yl)methyl sulfamate]",19%
2,"Nc1ccccc1[C@@H]1OC2(CCCC2)O[C@H]1COS(N)(=O)=O [Example 72, ((2S,3S)-3-(2-aminophenyl)-1,4-dioxaspiro[4,4]nonan-2-yl)methyl sulfamate]",54.3%
3,"NS(=O)(=O)OC[C@@H]1OC(=O)O[C@H]1c1ccccc1[N+](=O)[O-] [Example 90, ((4S,5S)-5-(2-nitrophenyl)-2-oxo-1,3-dioxolan-4-yl)methyl sulfamate]",60.4%
4,"CC1(C)O[C@@H](COS(N)(=O)=O)[C@H](c2ccccc2)O1 [Example 106, ((4S,5S)-5-phenyl-2,2-dimethyl-1,3-dioxolan-4-yl)methyl sulfamate]",24.5%
5,"NS(=O)(=O)OC[C@@H]1OC2(CCCC2)O[C@H]1c1ccccc1 [Example 110, ((2S,3S)-3-phenyl-1,4-dioxaspiro[4,4]nonan-2-yl)methyl sulfamate]",39.3%
6,"CC1(C)O[C@@H](CCOS(N)(=O)=O)[C@H](Cc2ccccc2)O1 [Example 114, 2-((4S,5S)-5-benzyl-2,2-dimethyl-1,3-dioxolan-4-yl)ethyl sulfamate]",36.4%
7,"NS(=O)(=O)OCC[C@@H]1OC2(CCCC2)O[C@H]1Cc1ccccc1 [Example 118, 2-((2S,3S)-3-benzyl-1,4-dioxaspiro[4,4]nonan-2-yl)ethyl sulfamate]",35.3%
8,"NS(=O)(=O)OC[C@@H]1OC2(CCCC2)O[C@H]1Cc1ccccc1 [Example 126, ((2S,3S)-3-benzyl-1,4-dioxaspiro[4,4]nonan-2-yl)methyl sulfamate]",43%
9,"CC1(C)O[C@@H](CCOS(N)(=O)=O)[C@H](Cc2ccccc2Cl)O1 [Example 138, 2-((4S,5S)-5-(2-chlorobenzyll)-2,2-dimethyl-1,3-dioxolan-4-yl)ethyl sulfamate]",60.2%
10,"NS(=O)(=O)OCC[C@@H]1OC2(CCCC2)O[C@H]1Cc1ccccc1Cl [Example 142, 2-((2S,3S)-3-(2-chlorobenzyl)-1,4-dioxaspiro[4,4]nonan-2-yl)ethyl sulfamate]",45.9%
11,"CC1(C)O[C@@H](COS(N)(=O)=O)[C@H](Cc2ccccc2Cl)O1 [Example 146, ((4S,5S)-5-(2-chlorobenzyl)-2,2-dimethyl-1,3-dioxolan-4-yl)methyl sulfamate]",65.1%
12,"NS(=O)(=O)OC[C@@H]1OC2(CCCC2)O[C@H]1Cc1ccccc1Cl [Example 150, ((2S,3S)-3-(2-chlorobenzyl)-1,4-dioxaspiro[4,4]nonan-2-yl)methyl sulfamate]",56.9%
13,"CC1(C)O[C@@H](CCOS(N)(=O)=O)[C@H](c2ccccc2Cl)O1 [Example 154, 2-((4S,5S)-5-(2-chlorophenyl)-2,2-dimethyl-1,3-dioxolan-4-yl)ethyl sulfamate]",38.9%
14,"CC1(C)O[C@@H](COS(N)(=O)=O)[C@H](c2sc(Cl)nc2Cl)O1 [Example 164, ((4S,5R)-5-(2,4-dichlorothiazol-5-yl)-2,2-dimethyl-1,3-dioxolan-4-yl)methyl sulfamate]",44.9%
15,"CC1(C)O[C@@H](COS(N)(=O)=O)[C@H](c2cnc(Cl)s2)O1 [Example 166, ((4R,5S)-5-(2-chlorothiazol-5-yl)-2,2-dimethyl-1,3-dioxolan-4-yl)methyl-sulfamate]",53.3%
